Laboratory results: article PMC4277498 (Cell reports, 2014)

Experiments:
gpr126 mutant zebrafish = settings: forskolin-induced cAMP elevation, ref Monk et al., 2009; cited from earlier work
[1] = tested on: β-adrenergic receptor endogenously expressed in COS-7 cells; settings: COS-7 with endogenous β-adrenergic receptor

Structure (SMILES) | reversal of peripheral myelination phenotype (gpr126 mutant zebrafish) | dynamic mass redistribution response (EPIC) [1]
C=C[C@@]1(C)CC(=O)[C@]2(O)[C@@]3(C)[C@@H](O)CCC(C)(C)[C@@H]3[C@H](O)[C@H](OC(C)=O)[C@@]2(C)O1 [forskolin] | reversible | 
CC(C)NCC(O)c1ccc(O)c(O)c1 (centres unmarked) [isoprenaline] |  | concentration-dependent cellular responses
